Test results: ChEMBL document CHEMBL3507680, “University of Dundee, Gates Library screen for HepG2 cell viability”

Test: Human HepG2 cell viability assay in 384 well format
Format: toxicity, cell-based
Design: dose 125 nL, time 70.5 hour; cytotoxicity at 70.5 h: concentration not given beside the values
Settings: HepG2 cells, read-out: Inhibition

Point of comparison: `Cc1ccc(C(CNC(=O)c2c(C)noc2C(C)C)N(C)C)cc1` (stereo not drawn), cytotoxicity at 70.5 h -4.44%. Against it:
- Cc1cccc(OCC(O)CN2CCC(c3ccn[nH]3)CC2)c1 (stereo not drawn) — higher, -0.803%
- CCCc1noc(CCCC(=O)N2CCCC2c2cnn(C)c2)n1 (stereo not drawn) — lower, -8.23%
- O=C(c1ccc2c(c1)COC2)N1CCN(CCO)CC1 — higher, -3.79%
- CCn1ncc2c1CCCC2NCc1ccc(OC)c(F)c1 (stereo not drawn) — lower, -9.63%
- COCCNC(=O)CN1CCC(N2CCN(C)C2=O)CC1 — lower, -13.2%
- OC(COCc1ccccc1Cl)CN1CCC(c2ccn[nH]2)CC1 (stereo not drawn) — higher, 1.38%
- CN(C)CC1CN(Cc2ccc(-n3cccn3)cc2)CCO1 (stereo not drawn) — higher, 0.969%
- O=C(CN1CCCC1Cn1cccn1)NCCC1=CCCCC1 (stereo not drawn) — lower, -9.89%
- CCc1ccsc1C(=O)N1CCCN(Cc2cnn(CC)c2)CC1 — higher, 7.56%
- CNC(=O)CCS(=O)(=O)Cc1cc(Cl)c2c(c1)OCCO2 — higher, -3.97%
- CC(=O)c1ccc(S(=O)(=O)NCc2cccnc2N(C)C)cc1 — higher, -3.14%
- COC(=O)c1cccc(S(=O)(=O)NCc2cccnc2N(C)C)c1 — higher, -2.85%
- O=C(CN1CCC(c2ccnn2CCO)CC1)NCC1CCCCC1 — higher, -3.43%
- COc1c(C)cnc(CN2CCOC(Cn3nc(C)cc3C)C2)c1C (stereo not drawn) — higher, -2.15%
- CCOc1ccnc(N2CCN(C(=O)c3ccoc3C)CC2)n1 — higher, -3.63%
- Nc1cc2c(nn1)CCN(C(=O)CCC1CCCCC1)C2 — lower, -11.1%
- Nc1cc2c(nn1)CCN(C(=O)CCCC1CCCCC1)C2 — lower, -13.1%
- CC(=O)NCCNC(=O)CN1CCCCC1Cn1cncn1 (stereo not drawn) — lower, -8.39%
- c1cn(-c2ccc(CN3CCOC(Cn4cncn4)C3)cc2)cn1 (stereo not drawn) — lower, -7.67%
- Nc1cc2c(nn1)CCN(C(=O)CC1CCCCC1)C2 — lower, -8.85%
- COc1c(C)cnc(CN2CCOC(Cn3cc(C)cn3)C2)c1C (stereo not drawn) — higher, 0.484%
- CCOc1ccnc(N2CCCN(C(=O)c3cc[nH]c3C)CC2)n1 — higher, 17.6%
- Cn1cc(C2CCCN2Cc2cscn2)cn1 (stereo not drawn) — higher, -2.56%
- CS(=O)(=O)NCCN1CCCC1c1ccc(Cl)cc1 (stereo not drawn) — higher, 12%
- Cc1nn(C)c(N2CCOCC2)c1CNC1COc2ccccc2C1 (stereo not drawn) — higher, 27.5%
- CN(C)S(=O)(=O)CCCN1CCCC1c1noc(C2CC2)n1 (stereo not drawn) — higher, 22.8%
- Clc1snnc1CN1CCCC1Cn1cncn1 (stereo not drawn) — higher, 53.6%
- COc1cc(C(=O)Nc2nc(C)no2)ccc1OC1CCCC1 — lower, -4.68%
- Cc1nn(C)c(N2CCOCC2)c1CNC1CCC(O)CC1 (stereo not drawn) — higher, -1.76%
- Cc1nn(C)c(N2CCOCC2)c1CNC1CCN(C2CC2)CC1 — lower, -6.05%
- CC(NC(=O)NCCCc1n[nH]c(N)c1C#N)c1ccc(F)c(F)c1 (stereo not drawn) — higher, -2.56%
- CCOc1ncccc1NC(=O)NCC(C)O (stereo not drawn) — higher, -3.67%
- COc1cc(C(=O)Nc2nc(C)no2)cc(OC)c1Br — higher, 27.4%
- CCn1cc(NC(=O)NCC(O)COc2ccccc2)cn1 (stereo not drawn) — lower, -7.02%
- Cc1nn(C)c(N2CCOCC2)c1CNC1CCc2ccccc21 (stereo not drawn) — lower, -7.04%
- CCCNC(=O)C1CCN(Cc2csc(CC)n2)CC1 — higher, 0.277%
- Cc1ccc(C(=O)N(C2CC2)C2CC(=O)NC2=O)cc1F (stereo not drawn) — higher, -3.53%
- CCN1CCN(C2CCN(Cc3nc(C4CC4)no3)CC2)C1=O — lower, -5.25%
- CCCNC(=O)C1CCN(Cc2csc(C(C)C)n2)CC1 — higher, 16.4%
- O=C1CC(N(C(=O)c2ccc(Cl)c(Cl)c2)C2CC2)C(=O)N1 (stereo not drawn) — higher, -4.14%
- Cc1ccc(-c2nc(CN3CCOC(Cn4cccn4)C3)no2)cc1 (stereo not drawn) — higher, -4.16%
- CCc1nc(CN(C(C)=O)C2CCN(Cc3csc(C)n3)C2)no1 (stereo not drawn) — higher, -2.47%
- Cc1cc(C(=O)NS(C)(=O)=O)c(C)n1-c1ccccc1 — lower, -13.1%
- O=C(CCN1C(=O)CCC1=O)NCC1(c2c(F)cccc2F)CCCC1 — lower, -11.2%
- COc1cccc(-n2c(C)cc(C(=O)NCCCC(N)=O)c2C)c1 — lower, -10.3%
- COc1cccc(-n2c(C)cc(C(=O)NC(C)(C)C(N)=O)c2C)c1 — lower, -15.2%
- COc1ccc(C2=CCN(C(=O)CN(C)Cc3ccco3)CC2)cc1 — lower, -11.2%
- Cc1cc(CN2CCN(CC(O)c3cccc(F)c3)CC2)no1 (stereo not drawn) — higher, -4.25%
- Cc1cc(CN2CCN(CC(O)c3ccc(Cl)cc3)CC2)no1 (stereo not drawn) — lower, -11.9%
- Cc1cnn(CC2CN(c3nc4ccccc4o3)CCO2)c1 (stereo not drawn) — higher, 16.4%
- Cc1cc(NC(=O)c2ccc(-n3ncc(C#N)c3N)cc2)n(C)n1 — lower, -8.66%
- Cc1cccnc1NC(=O)c1ccc(-n2ncc(C#N)c2N)cc1 — lower, -4.45%
- COc1cccc2cc(CNC(=O)N3CCOC(C)(C)C3)oc12 — higher, 14%
- c1ccc(OCCNC2CCCN(Cc3noc(C4CC4)n3)C2)cc1 (stereo not drawn) — lower, -7.17%
- Cc1nc(C)n(CC2CCCCN2CCOc2ccc(C#N)cc2)n1 (stereo not drawn) — lower, -9.43%
- Cc1cc(C)n(C2CCCN(C(=O)CCOc3ccccc3F)C2)n1 (stereo not drawn) — lower, -9.17%
- COc1cccc2cc(CNC(=O)N3CCS(=O)(=O)CC3)oc12 — higher, 12.1%
- COc1cccc2cc(CNC(=O)N3CCC(N4CCCC4)C3)oc12 (stereo not drawn) — lower, -4.76%
- CC(=O)c1cccc(OCC(=O)NS(=O)(=O)c2cccs2)c1 — lower, -6.58%
- CCc1n[nH]c(C2CN(C(=O)c3cc4c(s3)CCC4)CCO2)n1 (stereo not drawn) — higher, -4.28%
- Brc1cccc(-c2nnc(CNCCn3cccn3)o2)c1 — lower, -10.8%
- CC(NC(=O)NCCn1ccnc1)c1ccc2c(c1)OCCO2 (stereo not drawn) — lower, -14.3%
- Brc1ccccc1-c1nnc(CNCCn2cccn2)o1 — higher, 12.2%
- Clc1cccc(Cl)c1-c1nnc(CNCCn2cccn2)o1 — higher, -4.1%
- Cc1ccccc1C1(CNC(=O)CCN2C(=O)CCC2=O)CC1 — lower, -12.8%
- CN1CCOC(CNCc2coc(-c3cccc(Cl)c3)n2)C1 (stereo not drawn) — higher, -0.236%
- CCc1cnc(CN(C(C)=O)C2CCN(CCc3cccs3)C2)o1 (stereo not drawn) — higher, 8.24%
- CC(C)N1CC(C(=O)NCCOc2ccc3c(c2)OCO3)CC1=O (stereo not drawn) — higher, 1.18%
- COc1ccc(C2=CCN(C(=O)C3CCCN(C(N)=O)C3)CC2)cc1 (stereo not drawn) — lower, -6.51%
- O=C(Nc1cccc(CNCc2cccs2)c1)C1CCCC1 — lower, -15%
- Cn1ncc2c(=O)[nH]c(CN3CCCC3Cc3ccccc3)nc21 (stereo not drawn) — lower, -13.7%
- Cn1ncc2c(=O)[nH]c(CN3CCC(Cc4ccccc4)CC3)nc21 — higher, 34.8%
- COc1cc(C(=O)N(Cc2cnn(C)c2)C(C)C)ccc1OCC(N)=O — higher, 4.9%
- CC(NC(=O)NCC1(c2ccc(F)cc2)CCC1)c1nncn1C (stereo not drawn) — lower, -16.8%
- CCc1ccc(S(=O)(=O)Nc2c(C)cccc2C(=O)O)s1 — higher, 18.4%
- Cc1cn2c(n1)CCC(NC(=O)CCC(F)(F)F)C2 (stereo not drawn) — higher, -3.72%
- CCCc1n[nH]c(C2CN(C(=O)c3cc(F)ccc3OC)CCO2)n1 (stereo not drawn) — lower, -23.2%
- Cc1ncc2c(n1)CCN(C(=O)Cc1c(C)noc1C)C2 — higher, 22.9%
- COCCN1CCC(NC(=O)C2(c3cc(C)cc(C)c3)CC2)CC1 — lower, -11.3%
- CCN1CCOC(CNCc2ccccc2OCC(=O)N(C)C)C1 (stereo not drawn) — lower, -4.93%
- COc1ccc(C(=O)N(Cc2cnn(C)c2)C(C)C)cc1Br — lower, -9.53%
- COc1ccc(C2=CCN(C(=O)C3CC(=O)N(C4CC4)C3)CC2)cc1 (stereo not drawn) — lower, -12.9%
- O=C(CN1CCCC1Cn1cncn1)NCCOc1cccc(F)c1 (stereo not drawn) — lower, -14.6%
- CCCc1n[nH]c(C2CN(C(=O)c3ccco3)CCO2)n1 (stereo not drawn) — lower, -10.8%
- CC(C)OCCC(=O)N(C)CCCc1cc(-c2ccccc2)no1 — higher, 42.3%
- Cc1ncsc1C(=O)NCCSCCCO — higher, 9.95%
- CC(=O)NCc1ccc(C(=O)N2CCCCC2Cn2cccn2)o1 (stereo not drawn) — higher, 8.35%
- Cc1csc(CNC(=O)N(C)Cc2cnn(C)c2)n1 — lower, -15.5%
- Cc1cc(C2CCCN2CC(=O)N(CCC#N)c2ccccc2F)on1 (stereo not drawn) — lower, -12.2%
- CN(CC(=O)N1CCC(Oc2ccccc2)CC1)c1cnccn1 — lower, -13.9%
- Cn1ccnc1CN1CCN(c2ccc(C#N)cn2)CC1 — lower, -13.3%
- Cn1ccnc1CN1CCN(c2ccc(C#N)cc2F)CC1 — lower, -7.5%
- Clc1cc(CN2CCCC2Cn2cncn2)c2ncccc2c1 (stereo not drawn) — lower, -20.8%
- Clc1ccc2cccnc2c1CN1CCCC(Cn2cncn2)C1 (stereo not drawn) — lower, -14.3%
- CCCOc1cccc(CNC(=O)CN2CCN(C)CC2C)c1 (stereo not drawn) — lower, -13.5%
- CC(C)c1nc(C2CCCN2C(=O)c2cnc[nH]2)no1 (stereo not drawn) — higher, 21.4%
- CNc1nc(CNC(=O)Nc2cccc(-c3nnco3)c2)cs1 — lower, -18.7%
- CCOc1ccc(NC(=O)NCc2csc(NC)n2)cc1C — lower, -5.86%
- CN(CCC#N)C(=O)CN1CCCC1c1ccsc1 (stereo not drawn) — higher, 22.4%
- N#CCCN(C(=O)CN1CCCC1c1ccsc1)c1ccccc1F (stereo not drawn) — lower, -14%
- Cc1ccc(CC(=O)N2CCCC(c3cc(C)[nH]n3)C2)cn1 (stereo not drawn) — lower, -7.57%
- OCCn1cc(CN2CCN(CCOc3ccccc3F)CC2)cn1 — higher, 16.6%
- O=C(CN1CCOC(Cn2cccn2)C1)NCCc1ccc(F)cc1 (stereo not drawn) — lower, -13.9%
- CCc1nc(CN2CCCN(C(=O)c3cnc[nH]3)CC2)cs1 — lower, -14.3%
- Cc1ccc(CC(=O)N2CCCC(c3nc(C)cs3)C2)cn1 (stereo not drawn) — lower, -17.4%
- CCN(CC)Cc1ccc(C(=O)N2CCCCC2Cn2cccn2)o1 (stereo not drawn) — lower, -13.1%
- CC(=O)N(Cc1ncc(C(C)C)o1)C1CCN(Cc2nccn2C)C1 (stereo not drawn) — higher, -0.826%
- CC(=O)N(Cc1ncc(C(C)C)o1)C1CCN(CCn2cccn2)C1 (stereo not drawn) — higher, 4.58%
- CC(C)(C)c1nnc(CN2CCCC2c2noc(C3CC3)n2)o1 (stereo not drawn) — lower, -8.8%
- Cc1ncc2c(n1)CN(Cc1nnc(Cc3ccccc3)o1)CC2 — higher, -3.37%
- c1cnn(CC2CCCN2c2ncnc3ccsc23)c1 (stereo not drawn) — higher, 10.7%
- Cc1ccc(CNC(c2ccccc2)c2nccn2C)cc1C (stereo not drawn) — lower, -7.63%
- COc1ccc(-n2ccc(C(=O)N3CCC(C(N)=O)C3)n2)cc1 (stereo not drawn) — higher, 23.5%
- COc1c(CNCCNC(=O)c2ccco2)c(C)nn1C — lower, -10.7%
- CNC(=O)C1CCN(C(=O)CCn2cccn2)CC1 — higher, 26.7%
- Cc1ccc2c(c1)CCC2NCc1c(C)nn(C)c1N1CCOCC1 (stereo not drawn) — higher, -1.48%
- O=C(Nc1cccc(CNCc2csc(Br)c2)c1)C1CC1 — higher, 4.95%
